Measurements taken from patent publication US20110214190A1, “TRANSGENIC REPORTER MOUSE AND METHOD FOR USE” (priority 2008, published 2011).
Where two headings read alike, the source gives them in different places. Peptide text beside a SMILES is read from it. * marks the point of attachment. Cbz = O=C(OCc1ccccc1)*

What was measured:
[1] = cited from earlier work
Nf-κβ signaling = assay: Nf-κβ inhibitors on LipidA induced Luc/mC expression in vivo; set-up: species or system mouse
Text: A signaling pathway known to activate NGAL expression was taken advantage of in order to examine whether Luc2/mC expression was reversible after cessation of the stimulus. […] Subsequently, Nf-κβ mediates NGAL transcription. […] In addition, the testis is one of the few sites that tonically expresses NGAL and Luc2/mC, and even this site was suppressed by these inhibitors.

PARP = settings: after onset of acute hindlimb ischemia (post hoc), during I/R; cited from earlier work
[2] = system: cells from reporter kidneys; assay: NGAL-luciferase activity in primary cells from reporter kidneys; format: cell-based, mouse; settings: plates seeded with cells from reporter kidneys
Text: NGAL di-fusion primary cells from whole organs. Whole kidney cells were obtained from the NGAL di-fusion reporter mice (8-12 weeks of age) using collagenase (Sigma) digestion, differential sieving and seeded at a density of 1×10^5 per well. Cells were washed with a buffered salt solution and grown overnight before exposure to TLR agonists, ROS inducing species or toxin. Plates were imaged in the Xenogen IVIS optical imaging system (Xenogen Corp., Almeda, Calif.) for NGAL-luciferase activity.
Bioluminescence and Fluorescence Imaging of mCherry and luciferase Expression in Living Mice and primary cell lines. For in vivo bioluminescence imaging, mice were anesthetized, and injected with 150 mg/kg of luciferin in PBS (pH 7) via IP injection that is allowed to distribute in awake animals for about 10 minutes. […] Regions of interest (ROIs) were drawn on the dorsal side of the animal and quantified by using Living Image Software version 3.1. Counts detected in the ROIs by the CCD camera digitizer can by converted to physical units of radiance in photons/s/cm2/steradian. […] NGAL reporter primary cells were first imaged for mCherry activity with block excitation and block emission and NGAL-luciferase activity was quantified by detection of light emitted after cell lysis and incubation with luciferin. […]

cyst growth = settings: polycystic kidney disease model; cited from earlier work
NGAL expression = assay: Cell stressors, NGAL expression; format: cell-based; settings: H202 1 mmol/L for 4 hours
NGAL reporter ES cells = assay: NGAL-luciferase responsiveness in NGAL reporter ES cells; format: cell-based, mouse; settings: NGAL reporter ES cells exposed to stimulant; control conditions no detectable expression
Text: […]. […] […]. Verification of the germline-transmitted F1 mice. The targeted allele was PCR-amplified by using primers F2, and R3 which was from the 1 Kb DNA fragment replaced by a DTA-AMP^r cassette in the targeting construct.
NGAL targeting in mouse ES cells. The NGAL-targeting construct was electroporated into the KV1 ES cells, and the neomycin-resistant ES clones were PCR-screened for the targeted NGAL allele for homologous recombination. Additionally, ES cells containing the NGAL di-fusion gene were challenged with either cisplatin or LPS to induce NGAL reporter activity (FIG. 1B, Panel D). ES cells with a Luc2-mCherry-LNL knockin allele were microinjected into wild-type C57B6 blastocysts to generate chimera which were subsequently mated with albino C57B6 female mice for germline transmission. The F1 mice were PCR-genotyped by using primers F1, R1 and R2, and the germline transmitted mice contained both targeted and wild type alleles (FIG. 1B, Panel C).
Luciferase (pGL4.10[luc2], Promega E6651) and mCherry (pmCherry [mC], Clontech 632522) genes separated by a 42 by spacer were ligated by overlap PCR and validated in 293T cells using a CMV promoter to drive robust Luc2 and mC bioluminescence and fluorescence (FIG. 1A, Panel A). […]

NGAL-Luc2/mC reporter = assay: In vivo bioluminescence imaging of NGAL di-fusion reporter mouse after LipidA; settings: for NGAL activity assayed by luciferase (Luc2/mC response): kidney, liver, spleen, skin and lung, 24 hours after lipidA i.p. at 5, 15 and 30 mg/kg
Procedure: Bioluminescence and Fluorescence Imaging of mCherry and luciferase Expression in Living Mice and primary cell lines. For in vivo bioluminescence imaging, mice were anesthetized, and injected with 150 mg/kg of luciferin in PBS (pH 7) via IP injection that is allowed to distribute in awake animals for about 10 minutes. […]. Mice are then placed in a light tight chamber equipped with a halogen light source, and whole body image was acquired for 30 seconds using the Xenogen IVIS optical imaging system with a block excitation filter and a block emission filter for NGAL-mCherry visualization and an open emission filter for NGAL-luciferase activity. Regions of interest (ROIs) were drawn on the dorsal side of the animal and quantified by using Living Image Software version 3.1. Counts detected in the ROIs by the CCD camera digitizer can by converted to physical units of radiance in photons/s/cm2/steradian. Visualization of NGAL di-fusion reporter activity in primary cells were also assayed in the bioimager. NGAL reporter primary cells were first imaged for mCherry activity with block excitation and block emission and NGAL-luciferase activity was quantified by detection of light emitted after cell lysis and incubation with luciferin.

NGAL message [3] = assay: NGAL message (real-time PCR) in kidney after LipidA; format: in vivo, mouse; settings: 30 mg/kg LipidA
Procedure: (§1) Real-Time PCR were prepared according to Bio-Rad SYBR GREEN, iCyclerMyiQ protocols. Target genes, including Ngal, β-actin, utilized respectively: Ngal 116 forward primer 5′-[…]-3′ and NGALa593 reverse 5′-[…]-3′; β-actin415 forward primer 5′-[…]-3′ and β-actin 696 reverse primer 5′-[…]-3′. The ΔΔCT method was used to calculate fold amplification of transcripts.
as §1, with “Real Time” for “Real-Time”, “PCR analysis. Samples” for “PCR”, “processed” for “prepared”, “genes” for “genes, including Ngal, β-actin,”

NGAL message [4] = assay: Ngal in situ hybridization of kidney after lipidA challenge; format: in vivo, mouse; settings: after LipidA treatment
Procedure: In situ hybridization. NGAL RNA was detected using digoxigenin-labeled antisense riboprobes generated from cDNAs encoding Ngal (exon 1-7, 566 bp) by linearization with XhoI followed by T7 RNA polymerase. Kidneys were collected in ice-cold PBS and fixed overnight at 4° C. in 4% paraformaldehyde (PFA) in 0.1 M phosphate buffer saline (PBS), briefly quenched in 50 mM NH4Cl, cryoprotected overnight in 30% sucrose PBS and embedded and sectioned ([…]) in O.C.T. compound. The sections were post-fixed in 4% PFA for 10 min, treated with proteinase K (1 mg/ml for 3 min), acetylated and prehybridized for 2 hrs, and then hybridized at 68-72° C. overnight. The prehybridization and hybridization solution was 50% formamide, 5′SSC, 5′ Denhardts, […] baker's yeast RNA (Sigma), and […] herring sperm DNA (Sigma). Sections were washed at 72° C. in 5′SSC for 5-10 minutes, then at 72° C. in 0.2′SSC for 1 hour and then stained overnight (4° C.) with an anti-digoxigenin antibody coupled with alkaline phosphatase (Boehringer-Mannheim), at a 1:5000 dilution in 0.1 M Tris-HCl, pH 7.5, 0.15 M NaCl, 1% heat inactivated goat serum. Alkaline phosphatase activity was detected using BCIP, NBT (Boehringer-Mannheim) with 0.25 mg/ml levamisole in a humidified chamber for 1-3 days in the dark. Sections were dehydrated and mounted in Permount (Fisher Scientific). […]

[5] = format: in vivo, mouse
Text: Identification of Hidden Damage. Serum creatinine was little changed in our model of unilateral ischemia, because the untouched contralateral kidney limited the opportunity for azotemia.

## NCC(=O)O.[CH+]=O.[CH+]=O.[CH+]=O.[Cl][Ru] [CORM-3, tricarbonylchloro(glycinato)ruthenium(II)]
[1]; given 1 hour before onset of ischemia, 24 hours after reperfusion
  Levels of plasma creatinine: significantly decreased

## CC(C)C[C@@H](C=O)NC(=O)[C@H](CC(C)C)NC(=O)[C@H](CC(C)C)NC(=O)OCc1ccccc1 [MG-132] (Cbz-Leu-Leu-Leu-aldehyde)
Nf-κβ signaling
  Tonic NGAL and Luc2/mC expression in testis: suppressed
Nf-κβ signaling; NGAL reporter mouse
  LipidA induced Luc/mC expression: reduced LipidA induced Luc/mC expression

## CN(C)CC(=O)Nc1ccc2[nH]c(=O)c3ccccc3c2c1 [PJ34]
PARP
  Local production of inflammatory mediators: modulates the local production of inflammatory mediators

## N.N.[Cl][Pt][Cl] [cisplatin]
[2]
  Response of primary reporter kidney cells (luciferase): direct effect on renal epithelia

## CC(=O)O[C@H]1C(=O)[C@@]2(C)[C@H]([C@H](OC(=O)c3ccccc3)[C@]3(O)C[C@H](OC(=O)[C@H](O)[C@@H](NC(=O)c4ccccc4)c4ccccc4)C(C)=C1C3(C)C)[C@]1(OC(C)=O)CO[C@@H]1C[C@@H]2O [taxol]
Cyst growth
  Cyst growth: limit cyst growth

## [C-]#[O+].[C-]#[O+].[C-]#[O+].[C-]#[O+].[C-]#[O+].[C-]#[O+].[Cl][Ru][Cl].[Cl][Ru][Cl] [tricarbonyldichlororuthenium(II) dimer]
[1]; in vivo
  Levels of plasma creatinine: significantly decreased

## Cobalt
NGAL expression
  NGAL expression: trigger NGAL expression

## LipidA
NGAL reporter ES cells
  NGAL-luciferase activity: induced NGAL-luciferase activity
NGAL-Luc2/mC reporter
  NGAL activity assayed by luciferase (Luc2/mC response): graded Luc-mC response
NGAL-Luc2/mC reporter; listed as lipidA
  NGAL activity assayed by luciferase (Luc2/mC response): upregulated and dose dependent
NGAL-Luc2/mC reporter; same mice at a later time after volume depletion
  Luc/mC induction, positive control: effectively induced Luc/mC
NGAL message [3]
  NGAL message induced in the kidney: 30 fold
NGAL message [4]
  Localisation of Ngal expression in kidney: predominate expression in inner medullary tubules
NGAL message [4]; listed as lipidA
  Localisation of Ngal expression in kidney: expressed in tubules
[2]
  Response of primary reporter kidney cells (luciferase): responded in dose-dependent manner
[5]; 30 mg/kg dose of LipidA
  Azotemia: induced Luc/mC and azotemia
[5]; low doses of LipidA (Luc/mC still induced)
  Azotemia / serum creatinine: without azotemia or a change in serum creatinine
